The values below come from patent publication US20250313535A1, “ALPHA 4 BETA 7 INTEGRIN MODULATORS AND USES THEREOF” (DICE MOLECULES SV, INC., priority 2022, published 2025).

Read-outs that look alike come from different tables or passages of the source.

In the assay the target is α4β7 integrin (Homo sapiens (Human), UniProt P13612+P26010). Briefly: Integrin Adhesion Assay: Protocol 1 (MAdCAM-coated plate, RPMI-8866 cells, CellTiter GLO readout). The format is cell-based. How it is done: α4β7 and α4β1 inhibition was evaluated in vitro using at least one of the following procedures:
Integrin Adhesion Assay: Protocol 1
MAdCAM (R&D Systems, 0.1 ug) was diluted in 50 μL PBS, added to each well of an opaque ELISA plate (Thermo), and incubated overnight at 4° C. Coated plates were washed once with PBS and then blocked with 200 μL of assay buffer (10 mM HEPES, 150 mM NaCl, 1 mM MnCl2, 0.1 mM CaCl2), 1% BSA) for 1 hour at 37° C. and 5% CO2. After incubation, buffer was aspirated from the plates and 50 μL of fresh assay buffer is added. Compounds were added by a compouns dispenser (Tecan) and DMSO concentration was normalized to 1% across each plate. 50 μL of RPMI-8866 cells (2×10^6 per mL) were added to each well and the plates were incubated for 1 hour at 37° C. and 5% CO2. After incubation, plates were allowed to cool to RT for 10 minutes before being washed four times in assay buffer by an automated plate washer (BioTek). After washing, 100 μL of a 1:1 mixture of assay buffer and CellTiter GLO 2.0 reagent (Promega) were added to each well. Plates were mixed for 2 minutes at 1000 rpm and then allowed to incubate an additional 10 minutes before reading out luminescence on a Tecan Spark plate reader. Raw data was converted to percent inhibition based on DMSO only and control compound wells, and curves were analyzed by 4-parameter fit within Dotmatics software.
Background: In ATP-based viability assays light output follows the ATP content of the culture.

Setting [1] is: integrin adhesion assay, determined by at least one of the assays described (protocol not specified).

Sequence of α4β7 integrin (P13612 34-1032): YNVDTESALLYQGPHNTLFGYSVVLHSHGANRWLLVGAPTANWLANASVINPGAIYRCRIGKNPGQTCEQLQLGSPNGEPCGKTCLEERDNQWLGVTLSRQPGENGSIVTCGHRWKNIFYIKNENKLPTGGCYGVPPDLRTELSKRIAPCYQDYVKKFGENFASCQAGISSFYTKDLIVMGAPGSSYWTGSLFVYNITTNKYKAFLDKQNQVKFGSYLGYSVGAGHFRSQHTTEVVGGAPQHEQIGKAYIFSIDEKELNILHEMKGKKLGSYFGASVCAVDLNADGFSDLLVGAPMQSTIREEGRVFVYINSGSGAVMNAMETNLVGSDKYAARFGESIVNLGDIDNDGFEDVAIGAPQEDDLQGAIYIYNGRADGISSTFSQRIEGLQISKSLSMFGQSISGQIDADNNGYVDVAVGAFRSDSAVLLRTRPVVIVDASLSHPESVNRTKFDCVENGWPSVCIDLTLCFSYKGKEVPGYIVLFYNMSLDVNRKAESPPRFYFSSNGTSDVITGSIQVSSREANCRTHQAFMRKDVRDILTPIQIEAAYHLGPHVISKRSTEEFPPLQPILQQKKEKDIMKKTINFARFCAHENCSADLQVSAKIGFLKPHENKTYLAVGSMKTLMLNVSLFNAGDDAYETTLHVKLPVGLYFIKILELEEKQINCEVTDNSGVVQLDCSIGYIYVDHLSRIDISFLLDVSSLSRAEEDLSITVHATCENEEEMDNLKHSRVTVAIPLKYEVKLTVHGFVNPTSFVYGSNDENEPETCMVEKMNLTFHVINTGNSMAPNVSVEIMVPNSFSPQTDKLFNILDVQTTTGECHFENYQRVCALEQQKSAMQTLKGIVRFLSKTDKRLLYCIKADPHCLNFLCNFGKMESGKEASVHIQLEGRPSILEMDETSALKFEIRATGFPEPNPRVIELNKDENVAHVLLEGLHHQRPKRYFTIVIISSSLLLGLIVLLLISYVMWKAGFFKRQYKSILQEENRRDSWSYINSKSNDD
Sequence of α4β7 integrin (P26010 20-798): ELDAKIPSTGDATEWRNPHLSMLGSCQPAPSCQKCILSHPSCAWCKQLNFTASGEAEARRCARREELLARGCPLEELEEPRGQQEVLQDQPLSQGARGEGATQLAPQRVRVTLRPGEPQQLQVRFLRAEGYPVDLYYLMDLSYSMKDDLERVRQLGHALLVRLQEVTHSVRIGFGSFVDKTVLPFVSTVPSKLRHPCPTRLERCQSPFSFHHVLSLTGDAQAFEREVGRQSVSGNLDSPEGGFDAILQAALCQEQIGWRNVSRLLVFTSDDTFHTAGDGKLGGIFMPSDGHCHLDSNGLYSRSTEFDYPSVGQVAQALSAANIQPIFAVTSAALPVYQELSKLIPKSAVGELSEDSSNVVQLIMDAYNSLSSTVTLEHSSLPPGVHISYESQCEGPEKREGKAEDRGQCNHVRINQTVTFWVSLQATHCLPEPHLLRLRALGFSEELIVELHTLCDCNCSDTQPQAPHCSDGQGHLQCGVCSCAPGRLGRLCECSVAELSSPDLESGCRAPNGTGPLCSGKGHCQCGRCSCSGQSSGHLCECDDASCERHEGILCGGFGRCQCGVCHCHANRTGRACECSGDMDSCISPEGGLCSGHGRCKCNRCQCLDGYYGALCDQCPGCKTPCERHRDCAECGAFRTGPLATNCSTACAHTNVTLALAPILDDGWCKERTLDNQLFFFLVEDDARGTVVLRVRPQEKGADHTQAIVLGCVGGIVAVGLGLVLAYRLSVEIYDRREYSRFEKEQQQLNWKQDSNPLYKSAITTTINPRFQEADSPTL

What is called IC50 is the midpoint of a concentration-inhibition curve. `Cn1ccc(=O)n(-c2cccc3c(C[C@H](NC(=O)c4c(F)ccc(NS(=O)(=O)C5CC5)c4F)C(=O)O)cccc23)c1=O` [Compound 134] registered an IC50 under setting [1] below 0.01 µM. Turning to `Cn1c(=O)c(-c2cccc3c(C[C@H](NC(=O)c4c(F)cc5[nH]c(CC(F)(F)F)nc5c4F)C(=O)O)cccc23)c(C(F)(F)F)c2ccccc21` [Compound 320], the IC50 fell in the range of 0.1 to 1 µM.

Turning to `Cn1ccc(C(F)(F)F)c(-c2cncc3c(C[C@H](NC(=O)c4c(F)cccc4F)C(=O)O)cccc23)c1=O` [Compound 211], under setting [1], the IC50 was in the range of 0.01 to 0.1 µM.

On to `Cn1c(=O)c(-c2cccc3c(C[C@H](NC(=O)c4c(F)cc5cn(CC(F)(F)F)nc5c4F)C(=O)O)cccc23)c(C(F)(F)F)c2ccccc21` [Compound 348], for which the IC50 is 0.1 to 1 µM. On the same count and under the same terms, the value for `Cn1c(=O)c(-c2cccc3c(C[C@H](NC(=O)c4c(F)cc(N5CCOCC5c5ccc(C(F)(F)F)cc5)cc4F)C(=O)O)cccc23)c(C(F)(F)F)c2ccccc21` (stereo partly shown) [Compound 344] was above 1 µM; that for `Cn1c(C(F)(F)F)cc(C(F)(F)F)c(-c2cccc3c(C[C@H](NC(=O)[C@]4(C)CC[C@H](N5CCC(F)(F)CC5)CC4)C(=O)O)cccc23)c1=O` [Compound 406] was above 1 µM; that for `Cc1cccc(C)c1-c1cc(F)c(F)c(C(=O)N[C@@H](Cc2cccc3c(-c4c(C(F)(F)F)c5ccccc5n(C)c4=O)cccc23)C(=O)O)c1` [Compound 306] was above 1 µM. Same read-out and setting: the value for `Cn1c(=O)c(-c2cccc3c(C[C@H](NC(=O)c4c(F)cc(N5CCOC[C@H]5c5ccccc5)cc4F)C(=O)O)cccc23)c(C(F)(F)F)c2ccccc21` [Compound 334] was above 1 µM; that for `CO[C@@H]1C[C@@H](c2cc(F)c(C(=O)N[C@@H](Cc3cccc4c(-c5c(C(F)(F)F)c6ccccc6n(C)c5=O)cccc34)C(=O)O)c(F)c2)N(C)C1` [Compound 464] was 0.1 to 1 µM.

`Cn1c(=O)c(-c2cccc3c(C[C@H](NC(=O)c4c(F)cc(N5CCO[C@H](c6ccccc6)C5)cc4F)C(=O)O)cccc23)c(C(F)(F)F)c2ccccc21` [Compound 333] gave an IC50 above 1 µM. On to `CN1CC(C)(Cc2cc(F)c(C(=O)N[C@@H](Cc3cccc4c(-c5c(C(F)(F)F)c6ccccc6n(C)c5=O)cccc34)C(=O)O)c(F)c2)C1` [Compound 369], for which the half-inhibitory concentration (IC50) is above 1 µM. The same measure, in the same setting: for `Cn1c(=O)c(-c2cccc3c(C[C@H](NC(=O)c4c(F)cc(N(CC5COC5)C5COC5)cc4F)C(=O)O)cccc23)c(C(F)(F)F)c2ccccc21` [Compound 394] the value was 0.01 to 0.1 µM. The molecule `Cn1ccc(=O)n(-c2cccc3c(C[C@H](NC(=O)C4(C(F)(F)F)CCCCC4)C(=O)O)cccc23)c1=O` [Compound 13] yielded an IC50 under setting [1] of 0.01 to 0.1 µM. In turn, `Cn1c(=O)c(-c2cccc3c(C[C@H](NC(=O)c4c(F)cc(N5CCOc6ccc(C(F)(F)F)cc65)cc4F)C(=O)O)cccc23)c(C(F)(F)F)c2ccccc21` [Compound 343] showed an IC50 above 1 µM.

Consider `COc1ccn2nc(C(=O)N[C@@H](Cc3cccc4c(-c5c(C(F)(F)F)c6ccccc6n(C)c5=O)cccc34)C(=O)O)cc2c1` [Compound 427], for which the IC50 is above 1 µM. Still for that read-out and setting: for `Cn1c(=O)c(-c2cccc3c(C[C@H](NC(=O)c4c(F)cc(N5CCS(=O)(=O)CC5)cc4F)C(=O)O)cccc23)c(C(F)(F)F)c2ccccc21` [Compound 398] the value was 0.01 to 0.1 µM; for `Cn1c(=O)c(-c2cccc3c(C[C@H](NC(=O)c4c(F)cc(N5CCC(F)(F)CC5)cc4F)C(=O)O)cccc23)c(C(F)(F)F)c2ccccc21` [Compound 379], 0.1 to 1 µM; for `COCC1CCN(c2cc(F)c(C(=O)N[C@@H](Cc3cccc4c(-c5c(C(F)(F)F)c6ccccc6n(C)c5=O)cccc34)C(=O)O)c(F)c2)C1` (stereo partly shown) [Compound 463], above 1 µM. `Cn1c(=O)c(-c2cccc3c(C[C@H](NC(=O)c4c(F)cc(N5CCO[C@@H](c6ccccc6)C5)cc4F)C(=O)O)cccc23)c(C(F)(F)F)c2ccccc21` [Compound 338] returned an IC50 above 1 µM. `Cc1nn(C2CCOCC2)c(C)c1C(=O)N[C@@H](Cc1cccc2c(-n3c(=O)ccn(C)c3=O)cccc12)C(=O)O` [Compound 123] showed an IC50 under setting [1] of 0.01 to 0.1 µM. `Cn1c(=O)c(-c2cccc3c(C[C@H](NC(=O)c4c(F)cc(OC(F)(F)F)cc4F)C(=O)O)cccc23)c(C(F)(F)F)c2ccccc21` [Compound 370]: the IC50 is above 1 µM. Still for that read-out and setting: for `CN1CCC(c2cc(F)c(C(=O)N[C@@H](Cc3cccc4c(-c5c(C(F)(F)F)c6ccccc6n(C)c5=O)cccc34)C(=O)O)c(F)c2)CC1` [Compound 383] the value was 0.1 to 1 µM. For the molecule `C=CCc1cn(C)c(=O)n(-c2cccc3c(C[C@H](NC(=O)c4c(F)cccc4F)C(=O)O)cccc23)c1=O` [Compound 136], the IC50 under setting [1] was in the range of 0.01 to 0.1 µM. Molecule `Cc1cccc(C)c1-c1nc(C(=O)N[C@@H](Cc2cccc3c(-c4c(C(F)(F)F)c5ccccc5n(C)c4=O)cccc23)C(=O)O)c(C)n1C` [Compound 349] had an IC50 above 1 µM. In turn, `Cc1nn(CC(F)(F)F)c(C)c1C(=O)N[C@@H](Cc1cccc2c(-n3c(=O)ccn(C)c3=O)cccc12)C(=O)O` [Compound 122] displayed an IC50 under setting [1] of 0.01 to 0.1 µM. On to `Cn1c(=O)c(-c2cccc3c(C[C@H](NC(=O)c4c(F)ccc(C5CCCCC5)c4F)C(=O)O)cccc23)c(C(F)(F)F)c2ccccc21` [Compound 377], for which the IC50 was above 1 µM.

Regarding `Cn1c(=O)c(-c2cccc3c(C[C@H](NC(=O)c4c(F)cc(N5CCOC(c6cccc(C(F)(F)F)c6)C5)cc4F)C(=O)O)cccc23)c(C(F)(F)F)c2ccccc21` (stereo partly shown) [Compound 342], the IC50 was above 1 µM. Regarding `Cn1ccc(C(F)(F)F)c(-c2ccnc3c(C[C@H](NC(=O)c4c(F)cccc4F)C(=O)O)cccc23)c1=O` [Compound 212], under setting [1], the IC50 fell in the range of 0.1 to 1 µM. Same read-out and setting: the value for `Cc1nccc(O)c1C(=O)N[C@@H](Cc1cccc2c(-n3c(=O)ccn(C)c3=O)cccc12)C(=O)O` [Compound 125] was above 1 µM; that for `Cn1ccc(=O)n(-c2cccc3c(C[C@H](NC(=O)[C@@H]4CCCN4S(=O)(=O)c4ccccc4)C(=O)O)cccc23)c1=O` [Compound 109] was 0.1 to 1 µM. `Cn1c(=O)c(-c2cccc3c(C[C@H](NC(=O)c4cc5ccc(N6CC(F)(F)C6)cn5n4)C(=O)O)cccc23)c(C(F)(F)F)c2ccccc21` [Compound 428] showed an IC50 above 1 µM. In turn, `CC1(C)NC(=O)c2c(-c3cccc4c(C[C@H](NC(=O)c5c(F)cccc5F)C(=O)O)cccc34)cccc21` [Compound 5] returned an IC50 under setting [1] of 0.01 to 0.1 µM. Molecule `Cc1cccc(C)c1-c1cc(C(=O)N[C@@H](Cc2cccc3c(-c4c(C(F)(F)F)c5ccccc5n(C)c4=O)cccc23)C(=O)O)c(F)c(C(F)(F)F)c1` [Compound 303] showed an IC50 above 1 µM. The same measure, in the same setting: the value for `Cn1c(=O)c(-c2cccc3c(CC(Nc4nccc5cccc(F)c45)C(=O)O)cccc23)c(C(F)(F)F)c2ccccc21` (stereo not shown) [Compound 437] was above 1 µM; that for `Cn1c(=O)c(-c2cccc3c(C[C@H](NC(=O)c4c(F)cc(N5CCOC6(CCC6)C5)cc4F)C(=O)O)cccc23)c(C(F)(F)F)c2ccccc21` [Compound 340] was 0.1 to 1 µM; that for `CC(C)[C@H]1COCCN1c1cc(F)c(C(=O)N[C@@H](Cc2cccc3c(-c4c(C(F)(F)F)c5ccccc5n(C)c4=O)cccc23)C(=O)O)c(F)c1` [Compound 337] was 0.1 to 1 µM. The same measure, in the same setting: for `Cn1c(=O)c(-c2cccc3c(C[C@H](NC(=O)C45CC(N6CCC(F)(F)CC6)(C4)C5)C(=O)O)cccc23)c(C(F)(F)F)c2ccccc21` [Compound 391] the value was above 1 µM. The molecule `Cn1c(=O)c(-c2cccc3c(C[C@H](NC(=O)c4c(F)cc(-c5ccc(F)c(Cl)c5)cc4F)C(=O)O)cccc23)c(C(F)(F)F)c2ccccc21` [Compound 345] displayed an IC50 above 1 µM. With `Cn1ccc(=O)n(-c2cccc3c(C[C@H](NC(=O)c4c(F)ccc(C#N)c4F)C(=O)O)cccc23)c1=O` [Compound 32], the IC50 under setting [1] was in the range of 0.01 to 0.1 µM. In turn, `Cc1cccc(C)c1-c1cc(F)c(C(=O)N[C@@H](Cc2cccc3c(-c4c(C(F)(F)F)c5ccccc5n(C)c4=O)cccc23)C(=O)O)c(F)c1` [Compound 304] showed an IC50 above 1 µM. In the case of `Cc1c(C(=O)N[C@@H](Cc2cccc3c(-c4c(C(F)(F)F)c5ccccc5n(C)c4=O)cccc23)C(=O)O)nn2ccccc12` [Compound 329], the IC50 was above 1 µM. Turning to `CN(C)Cc1ccc2c(-c3cccc4c(C[C@H](NC(=O)[C@]5(C)CC[C@H](N6CCC(F)(F)CC6)CC5)C(=O)O)cccc34)nccc2c1` [Compound 586], the IC50 was above 1 µM. For the molecule `Cn1c(=O)c(-c2cccc3c(C[C@H](NC(=O)c4c(F)cc(N5CCC[C@@H]5C(F)(F)F)cc4F)C(=O)O)cccc23)c(C(F)(F)F)c2ccccc21` [Compound 319], the IC50 is 0.1 to 1 µM. On the same count and under the same terms, for `Cn1c(=O)c(-c2cccc3c(C[C@H](NC(=O)c4c(F)cc(N5CC(F)C5)cc4F)C(=O)O)cccc23)c(C(F)(F)F)c2ccccc21` [Compound 395] the value was 0.1 to 1 µM; for `Cn1c(=O)c(-c2cccc3c(C[C@H](NC(=O)c4cc5ccc(N6CC(F)C6)cn5n4)C(=O)O)cccc23)c(C(F)(F)F)c2ccccc21` [Compound 429], above 1 µM. Under setting [1], `Cn1ccc(=O)n(-c2cccc3c(C[C@H](NC(=O)C4(C)CCCN(CC(F)(F)F)C4)C(=O)O)cccc23)c1=O` (stereo partly shown) [Compound 121] showed an IC50 above 1 µM.
